{"source": "patent US20050191308A1", "about": "(priority 1999, published 2005)", "key": {"blood cells": {"tested_on": "blood cells", "type": "in vivo, C57BL/6 mice", "conditions": "10 μg ESAT-6/dose, three times"}, "ESAT-6": {"tested_on": "ESAT-6", "conditions": "in vivo"}}}
{"smiles": "CCCCCCCCCCCCCCCCCC[N+](C)(C)CCCCCCCCCCCCCCCCCC.[Br-]", "note": "[DDA]", "values": [{"measurement": "ESAT-6 specific recall response, IFN-γ, Expt. I", "setting": "blood cells", "result": "<50", "unit": "pg/mL"}, {"measurement": "ESAT-6 specific IgG (end-point titer), Expt. I", "setting": "ESAT-6", "result": "<3"}, {"measurement": "ESAT-6 specific IgG (end-point titer), Expt. II", "setting": "ESAT-6", "result": "<3"}]}
